# Patent US20200239530A1, “COMPOUNDS AND METHODS OF MODULATING PROTEIN DEGRADATION” (Vividion Therapeutics, Inc., priority 2017, published 2020)
# Read-outs that look alike come from different tables or passages of the source.
# Experiments:
# [1] = target: T1, O95376 (Homo sapiens, UniProt O95376); test: Competitive cysteine profiling, probe competition (Table 2B); format: binding; conditions: 500 uM
# T1 construct: Cells were resuspended in cold PBS on ice and sonicated with a probe sonicator to achieve lysis; endogenous in cells
# T1 sequence (O95376 1-493): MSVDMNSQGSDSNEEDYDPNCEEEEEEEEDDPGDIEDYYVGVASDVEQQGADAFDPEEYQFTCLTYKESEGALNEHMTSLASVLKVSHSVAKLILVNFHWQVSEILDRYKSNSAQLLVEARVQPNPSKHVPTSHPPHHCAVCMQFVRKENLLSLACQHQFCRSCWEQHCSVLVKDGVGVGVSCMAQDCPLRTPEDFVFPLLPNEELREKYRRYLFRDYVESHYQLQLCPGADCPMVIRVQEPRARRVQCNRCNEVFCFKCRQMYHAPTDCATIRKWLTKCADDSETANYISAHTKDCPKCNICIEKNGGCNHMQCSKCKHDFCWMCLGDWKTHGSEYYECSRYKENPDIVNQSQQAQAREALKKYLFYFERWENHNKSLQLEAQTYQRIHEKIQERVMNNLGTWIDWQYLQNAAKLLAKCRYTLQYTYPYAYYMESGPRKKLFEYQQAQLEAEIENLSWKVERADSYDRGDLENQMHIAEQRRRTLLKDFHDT
# Description: The following 96-well sample prep protocol was used for sample preparation.
# [2] = target: T2, TRIM71 E3 ubiquitin-protein ligase TRIM71 (Homo sapiens, UniProt Q2Q1W2); test: Cysteine liganding, probe competition; format: binding
# T2 construct: Cells were resuspended in cold PBS on ice and sonicated with a probe sonicator to achieve lysis; endogenous in cells
# T2 sequence (Q2Q1W2 1-868): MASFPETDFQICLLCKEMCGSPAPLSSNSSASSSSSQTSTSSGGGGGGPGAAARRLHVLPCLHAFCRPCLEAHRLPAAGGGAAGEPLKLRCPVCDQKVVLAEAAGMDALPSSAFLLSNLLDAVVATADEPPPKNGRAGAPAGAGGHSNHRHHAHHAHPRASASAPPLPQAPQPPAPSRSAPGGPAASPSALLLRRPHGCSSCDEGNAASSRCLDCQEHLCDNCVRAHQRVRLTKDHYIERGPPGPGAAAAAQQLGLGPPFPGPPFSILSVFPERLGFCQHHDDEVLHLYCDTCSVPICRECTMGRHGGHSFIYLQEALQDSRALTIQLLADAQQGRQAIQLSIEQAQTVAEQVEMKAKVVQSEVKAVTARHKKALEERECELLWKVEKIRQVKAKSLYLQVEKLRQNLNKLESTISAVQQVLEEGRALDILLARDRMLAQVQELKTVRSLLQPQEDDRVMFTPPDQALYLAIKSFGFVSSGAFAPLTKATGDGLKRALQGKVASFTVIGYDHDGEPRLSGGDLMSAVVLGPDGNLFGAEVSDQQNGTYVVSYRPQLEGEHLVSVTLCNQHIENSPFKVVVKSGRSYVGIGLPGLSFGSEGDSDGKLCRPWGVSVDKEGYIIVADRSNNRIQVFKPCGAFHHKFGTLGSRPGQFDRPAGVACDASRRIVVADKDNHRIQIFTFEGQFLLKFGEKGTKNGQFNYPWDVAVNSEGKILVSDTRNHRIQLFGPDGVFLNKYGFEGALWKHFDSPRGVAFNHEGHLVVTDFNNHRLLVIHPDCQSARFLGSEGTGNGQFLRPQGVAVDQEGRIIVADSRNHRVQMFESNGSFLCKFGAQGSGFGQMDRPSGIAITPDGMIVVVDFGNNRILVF
# Method: Cells were resuspended in cold PBS on ice and sonicated with a probe sonicator to achieve lysis. 200 μL of lysate containing 5 mg/ml proteome was treated with 2 μL of 100× compound stock in a 2-mL deep-well plate. The treated lysate was subsequently incubate at 25° C. for 1 hr with shaking at 600 rpm. The treated lysate was further incubated with 2 μL of 10 mM desthiobiotin iodoacetamide probe at 25° C. for 1 hr with shaking at 600 rpm. Next, the lysate was further treat with 20 μL of solution of PBS containing 11 mM MgSO4 and 2.5% Turbonuclease stock and incubated at 25° C. for 20 minutes with shaking at 600 rpm. 1.7 mL ice-cold acetone was added to each well and incubated at −20° C. for 2 hr, followed by max speed (4200 rpm) spin for 45 min. Acetone was then decanted and the plates were blotted to remove acetone. The plates were then dried in open air for 20 minutes. After drying, the plates were then covered with foil seal and stored at −80° C. overnight.
# The next day, samples were re-suspended in 90 μL of solution of 9M urea, 50 mM ammonium bicarbonate and 10 mM DTT by incubating at 65C for 20 min with shaking at 1500 rpm. Next, samples were cooled to 37° C. and then 10 μL of 500 mM iodoacetamide solution (92.48 mg/ml) was added. The samples were then incubated at 37° C. for 30 min with shaking at 600 rpm.
# ZEBA desalting plates were equilibrated 4 times using 250 μL of 2M urea, 50 mM ammonium bicarbonate solution followed by centrifugation at 1500 rpm for 2 minutes. After equilibration was complete, samples were applied to ZEBA desalting plate and spin at 1500 rpm for 2 min on top of 1 mL 96-well deep-well collection plate to buffer exchange samples. 4 μL of solution containing 25 mM CaCl2 and 0.25 mg/mL trypsin was added to the plate and the plate was then incubated at 37° C. for 2 hrs with shaking at 600 rpm. 300 μL of solution containing 5% high-capacity streptavidin agarose slurry in 25 mM Tris-HCl pH 7.5, 150 mM NaCl, and 0.1% NP-40 then added. The plate was incubated at 25° C. for 2 hrs with shaking at 600 rpm. Samples were transferred to 25 μm filter plate and spin at 1000 rpm for 2 min. Samples were then washed 3 times with 0.75 mL of wash buffer (25 mM Tris-HCl pH 7.5, 150 mM NaCl, and 0.1% NP-40) followed by washing 3 times with 0.75 mL PBS, and then 4 times with 0.75 mL water. After the washing step, samples were eluted into polypropylene 96-well plate by addition of 250 µL of 50% MeCN/water, 0.1% formic acid and allowed to gravity drip for 10 min, followed by centrifugation at 1000 rpm for 2 min. Speedvac was used to dry the plates at about 45° C. for […]. Then the plates were covered with foil seal and stored at −20° C.
# Samples were resuspended by addition of 20 μl of 12.5% ACN, 0.1% formic acid solution, covered with foil seal, and incubated at 42° C. for 10 minutes with shaking at 600 rpm. Then add 30 μL of 0.1% formic acid solution was added and the plate was covered and incubated at 42° C. for 10 minutes with shaking at 600 rpm. Seal plate was then sealed with a 96-well silicon mat for analysis.
compound,measurement,setting,value
COc1ccc2c(c1)CCCN2C(=O)CCl [KB02],KB02_500 uM_percent_inhibition,[1],89%
same,inhibition at 100 µM,"[2]; 100 uM, UniProt Q2Q1W2, read-out: KB02_100 uM_percent_inhibition",39%
same,Liganded,"[2]; TRIM71 Res# 636, uniprot Q2Q1W2",YES
C=CC(=O)N(c1ccccc1)c1ccc(Br)cc1 [KB05],KB05_500 uM_percent_inhibition,[1],79%
same,inhibition at 100 µM,"[2]; 100 uM, UniProt Q2Q1W2, read-out: KB05_100 uM_percent_inhibition",5%
O=C(CCl)Nc1cc(C(F)(F)F)cc(C(F)(F)F)c1 [KBO3],KB03_500 uM_percent_inhibition,[1],100%
same,KB03_100 uM_percent_inhibition,"[2]; 100 uM, UniProt Q2Q1W2",17%
same,100 Max,[2]; uniprot Q2Q1W2,17.2
same,100 ave,[2]; uniprot Q2Q1W2,17.2
same,500 Max,[2]; uniprot Q2Q1W2,64.2
same,500 ave,[2]; uniprot Q2Q1W2,64.2
